Where “and” joins values, the source holds several entries; their conditions need not be identical. Identical values can stand only once. Entries after “also recorded” stand apart in the source; their conditions may differ.

The target of assay [1] is T1, E. coli NTH-RNase E (Escherichia coli, UniProt P21513). Kind of assay: SPR binding to immobilized E. coli NTH-RNase E. The note with it: for SPR binding curve behaviour (specific or non-specific binding): E. coli NTH-RNase E, plateau at higher concentrations = specific; for Steady State KD value: apparent KD from SPR steady state fit, binding to E. coli RNase E, PBS with 5% DMSO; for Kd: read-out: Steady State KD value. As for the experimental part: (§1) E. coli and M. tuberculosis RNase E were immobilized covalently using amine coupling to the surface of a Biacore CM5 sensor chip (GE Healthcare). Immobilization levels were approximately 1500 RUs. Assessment of compound binding were conducted by injecting varying compound concentrations in PBS containing 5% DMSO at flow rates of 30–90 μl/min for ~60 s over the reference and test flow cells. A Biacore T100 instrument was used and the data collected was reference and buffer subtracted prior to steady state analysis using data fitting functions provided in the Biacore T100 Evaluation Software.
(In general: Surface plasmon resonance follows binding to a sensor surface in real time, without labels.)

For another assay, the target named is T2, E. coli RNase G (Escherichia coli, UniProt P0A9J0).
T2 construct: made in house
Kind of assay: Discontinuous cleavage assay, E. coli RNase G. The class given is biochemical. To be noted: for IC50: E. coli enzyme, conditions as for RNase E, NI = no inhibition (up to 40 mM tested), read-out: Nominal IC50 RNase G; for Inhibition of the activity of RNase G (in words): E. coli RNase G. Here is the method:
The compounds were obtained from Maybridge and re-suspended in 100% DMSO. Discontinuous cleavage assays were done using a 3′ fluorescein-labelled, 5′-monophosphorylated version of BR13, a well-characterised substrate of RNase E, with the sequence 5′-[…]↓AUUUG[44]. E. coli NTH-RNase E was pre-incubated with and without the compounds at 37°C for 20 min before the addition of substrate in a buffer containing 25 mM Bis-Tris Propane (pH 8.3), 100 mM NaCl, 15 mM MgCl2, 0.1% Triton X-100, 1 mM DTT and 20% DMSO. The enzyme monomer and substrate concentrations at the start of the reaction were 0.5 and 62 nM, respectively. The inhibition assays with RNase G and RNase A (Sigma) were carried out as above. Reaction products were analysed by electrophoresis using a denaturing 15% polyacrylamide, sequencing-type gel. Detection was via a FLA-5100 scanner (Fuji). Substrate and product were quantified using AIDA software (Raytest Isotopenmessgerate GmbH). Initial rates of reaction at increasing compound concentrations were obtained by establishing the slope representing percentage product generated over time during the initial, linear phase of the reaction. IC50 values were calculated by plotting the percentage inhibition of initial rate against compound concentration.

In assay [2] the target is T1, E. coli NTH-RNase E. In words: Discontinuous cleavage assay (pBR13-fl substrate), E. coli NTH-RNase E. The class given is biochemical. To be noted: for IC50: E. coli enzyme, pre-incubation 37°C 20 min, 20% DMSO, NI = no inhibition (up to 40 mM tested), read-out: Nominal IC50 RNase E; for Inhibition of catalysis by E. coli RNase E (in words): discontinuous cleavage assay, conditions used.
Protocol: The compounds were obtained from Maybridge and re-suspended in 100% DMSO. […] E. coli NTH-RNase E was pre-incubated with and without the compounds at 37°C for 20 min before the addition of substrate in a buffer containing 25 mM Bis-Tris Propane (pH 8.3), 100 mM NaCl, 15 mM MgCl2, 0.1% Triton X-100, 1 mM DTT and 20% DMSO. The enzyme monomer and substrate concentrations at the start of the reaction were 0.5 and 62 nM, respectively. […] Reaction products were analysed by electrophoresis using a denaturing 15% polyacrylamide, sequencing-type gel. Detection was via a FLA-5100 scanner (Fuji). Substrate and product were quantified using AIDA software (Raytest Isotopenmessgerate GmbH). Initial rates of reaction at increasing compound concentrations were obtained by establishing the slope representing percentage product generated over time during the initial, linear phase of the reaction. IC50 values were calculated by plotting the percentage inhibition of initial rate against compound concentration.

The target in assay [3] is T3, M. tuberculosis RNase E (Mycobacterium tuberculosis, UniProt P71905). In words: SPR binding to immobilized M. tuberculosis RNase E. The note with it: data not shown. Here is the method:
as §1

Assay [4] concerns the target T3, M. tuberculosis RNase E. Kind of assay: Cleavage of pBR13-fl by M. tuberculosis RNase E. The note with it: 5 mM compound; room temperature; 5% DMSO. The class given is biochemical. Here is the method: For M. tuberculosis RNase E (a kind gift from Prof. B. Luisi, University of Cambridge), 1 μM 3′ fluorescently-labelled, 5′ monophosphorylated BR13 was incubated with 50 nM RNase E with and without the compounds in buffer containing 25 mM Tris-HCl (pH 7.5), 100 mM NaCl, 15 mM MgCl2, 1 mM DTT and 5% DMSO at room temperature. Reactions were analysed by electrophoresis using denaturing 20% polyacrylamide gels and visualised using a UV transilluminator.

The mark [5] stands for this setting: compounds at their E. coli RNase E IC50 concentration: 1.9 mM P10, 1.8 mM P11, 3.8 mM M5, combinations at the same concentrations, read-out: Initial rate normalised to 1 for the reaction containing no compound.

T2 sequence (P0A9J0 whole entry): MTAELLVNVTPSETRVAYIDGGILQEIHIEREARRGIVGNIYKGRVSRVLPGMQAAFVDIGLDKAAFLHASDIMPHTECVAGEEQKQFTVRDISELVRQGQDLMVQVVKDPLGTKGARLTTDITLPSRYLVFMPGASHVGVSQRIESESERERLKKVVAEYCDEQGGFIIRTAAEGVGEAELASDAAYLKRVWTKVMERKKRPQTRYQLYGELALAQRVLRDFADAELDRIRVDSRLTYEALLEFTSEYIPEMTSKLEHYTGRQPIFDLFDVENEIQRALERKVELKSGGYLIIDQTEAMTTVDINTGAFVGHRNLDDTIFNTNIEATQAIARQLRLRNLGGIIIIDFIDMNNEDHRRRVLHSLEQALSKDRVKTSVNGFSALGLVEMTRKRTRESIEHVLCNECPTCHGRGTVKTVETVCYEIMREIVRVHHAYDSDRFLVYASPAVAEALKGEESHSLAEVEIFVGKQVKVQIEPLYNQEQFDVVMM
T3 sequence (P71905 whole entry): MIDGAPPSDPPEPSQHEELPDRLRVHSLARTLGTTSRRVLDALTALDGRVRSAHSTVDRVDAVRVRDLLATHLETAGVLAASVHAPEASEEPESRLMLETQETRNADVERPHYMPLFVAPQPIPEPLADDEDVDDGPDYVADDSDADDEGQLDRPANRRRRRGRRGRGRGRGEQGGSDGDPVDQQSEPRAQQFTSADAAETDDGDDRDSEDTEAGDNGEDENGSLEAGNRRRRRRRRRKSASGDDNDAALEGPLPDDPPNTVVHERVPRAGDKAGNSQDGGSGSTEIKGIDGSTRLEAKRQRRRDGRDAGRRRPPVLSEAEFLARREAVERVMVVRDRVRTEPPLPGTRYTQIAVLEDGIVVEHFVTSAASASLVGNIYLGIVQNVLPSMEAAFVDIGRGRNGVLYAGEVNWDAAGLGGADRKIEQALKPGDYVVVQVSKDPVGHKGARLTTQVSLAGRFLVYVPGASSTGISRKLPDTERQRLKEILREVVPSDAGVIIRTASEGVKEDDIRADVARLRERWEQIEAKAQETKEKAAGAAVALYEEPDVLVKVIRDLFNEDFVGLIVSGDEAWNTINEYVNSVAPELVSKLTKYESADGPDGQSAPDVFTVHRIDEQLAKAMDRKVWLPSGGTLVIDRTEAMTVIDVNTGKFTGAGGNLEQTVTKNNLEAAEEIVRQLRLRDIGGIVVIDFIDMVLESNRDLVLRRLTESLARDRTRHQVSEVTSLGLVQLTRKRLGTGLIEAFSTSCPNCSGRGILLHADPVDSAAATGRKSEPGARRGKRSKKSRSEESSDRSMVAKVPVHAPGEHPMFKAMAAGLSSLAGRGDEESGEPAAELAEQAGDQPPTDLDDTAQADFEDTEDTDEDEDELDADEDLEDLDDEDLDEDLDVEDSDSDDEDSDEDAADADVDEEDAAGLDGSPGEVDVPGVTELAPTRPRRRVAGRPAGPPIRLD
T1 sequence (P21513 1-529): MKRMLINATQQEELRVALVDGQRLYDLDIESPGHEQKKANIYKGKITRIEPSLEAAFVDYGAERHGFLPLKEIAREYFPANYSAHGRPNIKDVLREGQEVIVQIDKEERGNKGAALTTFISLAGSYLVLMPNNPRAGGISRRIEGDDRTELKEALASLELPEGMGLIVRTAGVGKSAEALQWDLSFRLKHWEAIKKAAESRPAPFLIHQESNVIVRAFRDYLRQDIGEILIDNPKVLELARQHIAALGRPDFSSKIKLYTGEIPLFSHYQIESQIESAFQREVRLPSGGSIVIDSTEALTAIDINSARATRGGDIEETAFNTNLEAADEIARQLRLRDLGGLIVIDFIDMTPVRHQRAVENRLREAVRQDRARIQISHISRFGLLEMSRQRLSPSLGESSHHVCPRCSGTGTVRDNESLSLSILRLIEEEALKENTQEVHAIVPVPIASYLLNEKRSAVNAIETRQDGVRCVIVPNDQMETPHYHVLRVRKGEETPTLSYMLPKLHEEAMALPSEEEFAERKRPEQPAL

A word on the IC50: it is the midpoint of a concentration-inhibition curve. With `O=C1c2ccccc2NC(c2cc(Cl)cc(Cl)c2O)N1Cc1cccnc1` (centres unmarked) [M2], on E. coli NTH-RNase E [1], the “SPR binding curve behaviour (specific or non-specific binding)” value is listed as “bind but at sites other than the intended target” and the “Steady State KD value” is given as “non-specific”. At E. coli RNase G, the IC50 is above 40 mM. For the same compound, at E. coli NTH-RNase E [2], the half-maximal inhibitory concentration (IC50) is above 40 mM and the “Inhibition of catalysis by E. coli RNase E (in words)” value (“Inhibition of catalysis” below) was “did not inhibit RNase E”.
One may read the Kd as the constant that tells how readily two partners part at equilibrium. `Cc1onc(-c2c(Cl)cccc2Cl)c1C(=O)N=S(C)(C)=O` [M3]: on E. coli NTH-RNase E [1], the “SPR binding curve behaviour (specific or non-specific binding)” value is reported as “consistent with targeting of specific sites”. Moreover, the Kd on E. coli NTH-RNase E [1] is around 0.6 mM. Moreover, the IC50 at E. coli RNase G and on E. coli NTH-RNase E [2] was above 40 mM throughout.
As to `CCOC(=O)NC(=O)c1cn(Nc2ncc(Cl)cc2C(F)(F)F)c(=O)[nH]c1=O` [M5], at E. coli NTH-RNase E [1], the “SPR binding curve behaviour (specific or non-specific binding)” value is recorded as “consistent with targeting of specific sites; also recorded: specific binding” and the dissociation constant Kd is around 3 mM. Also, at E. coli RNase G, the “Inhibition of the activity of RNase G (in words)” value is on record as “able to inhibit the activity of RNase G”; the IC50 is 3.3 mM and ~3.3 mM. Also, the “SPR binding curves, M. tuberculosis RNase E (in words)” value at M. tuberculosis RNase E [3] is recorded as “consistent with specific targeting”. Besides, on E. coli NTH-RNase E [2], the IC50 was 3.8 mM and ~3.8 mM; the “Inhibition of catalysis” value was “clearly inhibited catalysis”. For the same compound, at E. coli NTH-RNase E [2] (setting [5]), the activity at 3800 µM was 42%. Besides, on M. tuberculosis RNase E [4], the “Inhibition of M. tuberculosis RNase E (in words)” value is listed as “inhibits activity but appears to be less efficient”.
For `Cc1c(C(=O)NNc2cc(C(F)(F)F)ccc2Cl)n(C)oc1=O` [M8], on E. coli NTH-RNase E [1], the “SPR binding curve behaviour (specific or non-specific binding)” value is recorded as “consistent with targeting of specific sites” and the Kd was around 3.5 mM. Also, on E. coli NTH-RNase E [2], the IC50 is around 3.2 mM and the “Inhibition of catalysis” value was “clearly inhibited catalysis”.
For `Cc1nnsc1-c1onc(C)c1C(=O)O/N=C/c1cccc(Cl)c1` [M9], at E. coli NTH-RNase E [1], the “SPR binding curve behaviour (specific or non-specific binding)” value is “consistent with targeting of specific sites” and the Kd was around 2 mM. Also, at E. coli RNase G, the “Inhibition of the activity of RNase G (in words)” value was “able to inhibit the activity of RNase G” and the IC50 was around 24 mM. Also, on E. coli NTH-RNase E [2], the IC50 was around 18 mM and the “Inhibition of catalysis” value was “inhibited catalysis but much less efficiently”.
`Cc1ccc(C)n1-c1nn(S(=O)(=O)c2cccc3nonc23)c2cccc(F)c12` [P6]: on E. coli NTH-RNase E [1], the “SPR binding curve behaviour (specific or non-specific binding)” value is on record as “consistent with targeting of specific sites”. For the same compound, the “Inhibition of the activity of RNase G (in words)” value at E. coli RNase G is listed as “able to inhibit the activity of RNase G”. Besides, the “Inhibition of catalysis” value on E. coli NTH-RNase E [2] is recorded as “clearly inhibited catalysis”.
On to `Cc1ccc(S(=O)(=O)NC(=O)N2CCCN(c3ncnc4scc(-c5ccccc5)c34)CC2)cc1` [P10], for which, on E. coli NTH-RNase E [1], the “SPR binding curve behaviour (specific or non-specific binding)” value is “bind at sites other than the intended target; also recorded: non-specific binding” and the “Steady State KD value” is listed as “non-specific”. Also, at E. coli RNase G, the “Inhibition of the activity of RNase G (in words)” value is listed as “able to inhibit the activity of RNase G”; the IC50 is 2.4 mM and ~2.4 mM. Also, on E. coli NTH-RNase E [2], the IC50 is 1.9 mM and ~1.9 mM; the “Inhibition of catalysis” value is “inhibited RNase E”. In addition, the activity at 1900 µM on E. coli NTH-RNase E [2] (setting [5]) is 44%.
For the compound `Cc1ccc(S(=O)(=O)NC(=O)NCCSCc2c(C)cc(C)cc2C)cc1` [P11], on E. coli NTH-RNase E [1], the “SPR binding curve behaviour (specific or non-specific binding)” value is “consistent with targeting of specific sites; also recorded: specific binding”. The “Inhibition of the activity of RNase G (in words)” value at E. coli RNase G is recorded as “able to inhibit the activity of RNase G”. The “SPR binding curves, M. tuberculosis RNase E (in words)” value at M. tuberculosis RNase E [3] was “consistent with specific targeting”. Further, on E. coli NTH-RNase E [2] (setting [5]), the activity at 1800 µM was determined as 62%. Moreover, the “Inhibition of catalysis” value on E. coli NTH-RNase E [2] is “clearly inhibited catalysis”. Moreover, the “Inhibition of M. tuberculosis RNase E (in words)” value on M. tuberculosis RNase E [4] is “clear inhibition”.
